This is an account of results in US20260049072A1, “HETEROCYCLIC COMPOUND FOR INDUCING DEGRADATION OF MUTANT KRAS PROTEIN” (Astellas Pharma Inc., priority 2022, published 2026).

The structures appear in SMILES notation. pIC50: −log10 of the molar value.

The first experiment relates to phosphorylation of ERK (Thr202/Tyr204). The experiment is described as follows: ERK phosphorylation inhibitory activity, cell ELISA, PA-TU-8902. The class given is cell-based. To be noted: Homo sapiens, PaTu 8902, 24 h, read-out: IC50 (ERK phosphorylation inhibition). The protocol: Test Example 2: Evaluation of ERK Phosphorylation Inhibitory Activity on Human KRAS G12V Mutant-Positive Pancreatic Cancer Line PA-TU-8902
The ERK phosphorylation inhibitory activities of subject compounds were evaluated by measuring phosphorylation of the 202th threonine (Thr202) and the 204th tyrosine (Tyr204) of ERK located downstream of the KRAS signal by cell ELISA.
PA-TU-8902 cells were seeded at 36 µL/well on a 384-well plate (from Greiner bio-one) to give 5.0×10^3 cells per well. The cell culture conditions were the same conditions as in Test Example 1-1.
The next day, the subject compounds (9 points having final concentrations in the range of 3 μM to 0.3 nM), trametinib (MEK inhibitor) of a final concentration of 300 nM as a positive control and DMSO, which was the solvent for the subject compounds, as a negative control were diluted 100-fold with a fresh medium and were each added at 4 μL per well, followed by culturing for 24 hours. After culturing, a 30% glyoxal solution (40% glyoxal [from Nacalai Tesque] was diluted with PBS) was quickly added at 30 μL per well, and the plate was allowed to stand for an hour and 30 minutes at room temperature to thus immobilize the cells. Then, the plate was centrifuged (110×g, seven seconds, hereinafter centrifugation was performed under the same conditions unless otherwise specified) to remove the supernatant, and 0.1% Triton X-100-containing PBS was added at 20 μL per well. After allowing the plate to stand for 10 minutes at room temperature, the supernatant was removed by centrifugation, and the same operation was further repeated. Next, 0.5% SDS-containing PBS was added at 20 μL per well. The plate was allowed to stand at room temperature for 30 minutes and was then centrifuged to remove the supernatant. Subsequently, a blocking solution (Intercept Blocking Buffer) was added at 20 μL per well, and the plate was allowed to stand for an hour at room temperature. The supernatant was removed by centrifugation, and an ERK (Thr202/Tyr204) phosphorylation antibody (Phospho-p44/42 MAPK (Erk 1/2) (Thr202/Tyr204) (D13.14.4E) XP Rabbit mAb; from Cell Signaling Technology) diluted 2,500-fold with the blocking solution was added at 15 μL per well as a primary antibody. The plate was allowed to stand at 4° C. overnight.
The next day, the plate was centrifuged to remove the supernatant, and 0.05% Tween-20-containing PBS (from Thermo Scientific; 20×PBS Tween-20 was diluted 20-fold with ion exchange water and used) was added at 50 μL per well. The supernatant was removed by centrifugation to thus wash each well. The washing was performed three times in total. After washing, an anti-rabbit IgG antibody diluted 1,000-fold with the blocking solution was added at 15 μL per well as a secondary antibody, and the plate was allowed to stand for an hour at room temperature. The plate was centrifuged to remove the supernatant, and each well was washed three times with 0.05% Tween-20-containing PBS in the same manner as after the primary antibody reaction. Centrifugation after the third washing was performed at 171×g for 17 seconds. After removing the supernatant, the plate was dried as it was with air at room temperature for three hours or more, and the 800-nm fluorescent signals were measured with Aerius.
With the signaling value at the time of addition of DMSO taken as 0% inhibition and with the signaling value at the time of addition of 300 nM trametinib taken as 100% inhibition, the 50% inhibition values (IC50) were calculated by Sigmoid-Emax model nonlinear regression analysis.
A general note: In an ELISA, binding on a coated surface is turned into a signal by an enzyme label.
As for `CO[C@@H](C)COc1cc(OC2CN(C(=O)C3CN(C)C3)C2)c2cc(C3CC3)c(-c3c(C)c(F)cc4[nH]ncc34)c(OCc3ccc(-c4cn([C@H](C(=O)N5C[C@H](O)C[C@H]5C(=O)N[C@@H](CO)c5ccc(-n6cncn6)cc5)C(C)C)nn4)cc3)c2n1` (atropisomer, axis not shown) [Example 42], the pIC50 was 7.85.

With `CO[C@@H](C)COc1nc(OC2CN(C(=O)NCCN(C)C)C2)c2cc(C3CC3)c(-c3c(C)c(F)cc4[nH]ncc34)c(OCc3ccc(C(=O)N[C@H](C(=O)N4C[C@H](O)C[C@H]4C(=O)N[C@@H](CO)c4ccc(-c5scnc5C)cc4)C(C)C)cc3)c2n1` [Example 40, N-{4-[({(7M)-6-cyclopropyl-4-[(1-{[2-(dimethylamino)ethyl]carbamoyl}azetidin-3-yl)oxy]-7-(6-fluoro-5-methyl-1H-indazol-4-yl)-2-[(2S)-2-methoxypropoxy]quinazolin-8-yl}oxy)methyl]benzoyl}-L-valyl-(4R)-4-hydroxy-N-{(1R)-2-hydroxy-1-[4-(4-methyl-1,3-thiazol-5-yl)phenyl]ethyl}-L-prolinamide], the pIC50 is 7.28.

Still in this experiment, the particulars now being: Homo sapiens, PaTu 8902; PA-TU-8902 cells, 24 hours, 100% = 300 nM trametinib; read-out: IC50 (ERK phosphorylation inhibition).
With `Cc1ncsc1-c1ccc([C@H](CO)NC(=O)[C@@H]2C[C@@H](O)CN2C(=O)[C@H](C(C)C)n2cc(-c3ccc(COc4c(-c5c(C)c(F)cc6[nH]ncc56)c(C5CC5)cc5c(N6CC[C@H]6C(N)=O)nc(OC6CCOCC6)nc45)cc3)nn2)cc1` [Example 35], the pIC50 is 7.96.

For the molecule `CO[C@@H](C)COc1nc(NC2CN(C(=O)O[C@H]3C[C@@H](N(C)C)C3)C2)c2cc(C3CC3)c(-c3c(C)c(F)cc4[nH]ncc34)c(OCc3ccc(-c4cn([C@H](C(=O)N5C[C@H](O)C[C@H]5C(=O)N[C@@H](CO)c5ccc(N6CCOC6=O)cc5)C(C)C)nn4)cc3)c2n1` (atropisomer, axis not shown) [Example 4], the negative logarithm of the IC50 (pIC50) was 7.32.

Regarding `CO[C@@H](C)COc1nc(NC2CN(C(=O)O[C@H]3C[C@@H](N(C)C)C3)C2)c2cc(C3CC3)c(-c3c(C)c(F)cc4[nH]ncc34)c(OCc3ccc(-c4cn([C@H](C(=O)N5C[C@H](O)C[C@H]5C(=O)N[C@@H](CO)c5ccc(-n6cncn6)cc5)C(C)C)nn4)cc3)c2n1` (atropisomer, axis not shown; (M)) [Example 2, (1s,3R)-3-(dimethylamino)cyclobutyl 3-({(7M)-6-cyclopropyl-7-(6-fluoro-5-methyl-1H-indazol-4-yl)-8-{[4-(1-{(2S)-1-[(2S,4R)-4-hydroxy-2({(1R)-2-hydroxy-1-[4-(1H-1,2,4-triazol-1-yl)phenyl]ethyl}carbamoyl)pyrrolidin-1-yl]-3-methyl-1-oxobutan-2-yl}-1H-1,2,3-triazol-4-yl)phenyl]methoxy}-2-[(2S)-2-methoxypropoxy]quinazolin-4-yl}amino)azetidine-1-carboxylate], the pIC50 is 7.80.

As to `Cc1ncsc1-c1ccc([C@H](CO)NC(=O)[C@@H]2C[C@@H](O)CN2C(=O)[C@H](C(C)C)n2cc(-c3ccc(COc4c(-c5c(C)c(F)cc6[nH]ncc56)c(C5CC5)cc5c(NCc6cccnc6)nc(OC6CCOCC6)nc45)cc3)nn2)cc1` [Example 29], the pIC50 was 7.82.

In the case of `CO[C@@H](C)COc1cc(OC2CN(C(=O)CCCN(C)C)C2)c2cc(C3CC3)c(-c3c(C)c(F)cc4[nH]ncc34)c(OCc3ccc(-c4cn([C@H](C(=O)N5C[C@H](O)C[C@H]5C(=O)N[C@@H](CO)c5ccc(-n6cncn6)cc5)C(C)C)nn4)cc3)c2n1` (atropisomer, axis not shown; (M)) [Example 41, (4R)-1-[(2S)-2-(4-{4-[({(7M)-6-cyclopropyl-4-({1-[4-(dimethylamino)butanoyl]azetidin-3-yl}oxy)-7-(6-fluoro-5-methyl-1H-indazol-4-yl)-2-[(2S)-2-methoxypropoxy]quinolin-8-yl}oxy)methyl]phenyl}-1H-1,2,3-triazol-1-yl)-3-methylbutanoyl]-4-hydroxy-N-{(1R)-2-hydroxy-1-[4-(1H-1,2,4-triazol-1-yl)phenyl]ethyl}-L-prolinamide], the pIC50 was 7.62.

In the case of `CNCCNC(=O)N1CC(Oc2nc(OC[C@H](C)OC)nc3c(OCc4ccc(-c5cn([C@H](C(=O)N6C[C@H](O)C[C@H]6C(=O)N[C@@H](CO)c6ccc(-c7scnc7C)cc6)C(C)C)nn5)cc4)c(-c4c(C)c(F)cc5[nH]ncc45)c(C4CC4)cc23)C1` (atropisomer, axis not shown) [Example 18], the pIC50 is 7.48.

As for `CO[C@@H](C)COc1nc(N2CC(C#N)C2)c2cc(C3CC3)c(-c3c(C)c(F)cc4[nH]ncc34)c(OCc3ccc(-c4cn([C@H](C(=O)N5C[C@H](O)C[C@H]5C(=O)N[C@@H](CO)c5ccc(-c6scnc6C)cc5)C(C)C)nn4)cc3)c2n1` (atropisomer, axis not shown) [Example 20], the pIC50 is 7.47.

With `CO[C@@H](C)COc1cc(OC2CN(C(=O)N3CC(CN(C)C)C3)C2)c2cc(C3CC3)c(-c3c(C)c(F)cc4[nH]ncc34)c(OCc3ccc(-c4cn([C@H](C(=O)N5C[C@H](O)C[C@H]5C(=O)N[C@@H](CO)c5ccc(-c6ocnc6C)cc5)C(C)C)nn4)cc3)c2n1` (atropisomer, axis not shown; (M)) [Example 6, (4R)-1-[(2S)-2-(4-{4-[({(7M)-6-cyclopropyl-4-[(1-{3-[(dimethylamino)methyl]azetidine-1-carbonyl}azetidin-3-yl)oxy]-7-(6-fluoro-5-methyl-1H-indazol-4-yl)-2-[(2S)-2-methoxypropoxy]quinolin-8-yl}oxy)methyl]phenyl}-1H-1,2,3-triazol-1-yl)-3-methylbutanoyl]-4-hydroxy-N-{(1R)-2-hydroxy-1-[4-(4-methyl-1,3-oxazol-5-yl)phenyl]ethyl}-L-prolinamide], the negative logarithm of the IC50 (pIC50) is 8.15.

Regarding `COC(C)(C)COc1cc(OC2CN(C(=O)N3CC(CN(C)C)C3)C2)c2cc(C3CC3)c(-c3c(C)c(F)cc4[nH]ncc34)c(OCc3ccc(-c4cn([C@H](C(=O)N5C[C@H](O)C[C@H]5C(=O)N[C@@H](CO)c5ccc(-n6cncn6)cc5)C(C)C)nn4)cc3)c2n1` (atropisomer, axis not shown) [Example 9], the negative logarithm of the IC50 (pIC50) was 7.92.

Regarding `CO[C@@H](C)COc1nc(N(C)[C@H]2CCN(C(=O)NCCN(C)C)C2)c2cc(C3CC3)c(-c3c(C)c(F)cc4[nH]ncc34)c(OCc3ccc(-c4cn([C@H](C(=O)N5C[C@H](O)C[C@H]5C(=O)N[C@@H](CO)c5ccc(-c6scnc6C)cc5)C(C)C)nn4)cc3)c2n1` (atropisomer, axis not shown) [Example 19], the pIC50 is 7.51.

In the case of `CO[C@@H](C)COc1nc(N[C@H]2C[C@H](OCCN(C)C)C2)c2cc(C3CC3)c(-c3c(C)c(F)cc4[nH]ncc34)c(OCc3ccc(-c4cn([C@H](C(=O)N5C[C@H](O)C[C@H]5C(=O)N[C@@H](CO)c5ccc(-c6scnc6C)cc5)C(C)C)nn4)cc3)c2n1` (atropisomer, axis not shown) [Example 23], the pIC50 was 6.97.

`CO[C@@H](C)COc1nc(NC2CN(C(=S)N3CC(CN(C)C)C3)C2)c2cc(C3CC3)c(-c3c(C)c(F)cc4[nH]ncc34)c(OCc3ccc(-c4cn([C@H](C(=O)N5C[C@H](O)C[C@H]5C(=O)N[C@@H](CO)c5ccc(-n6cncn6)cc5)C(C)C)nn4)cc3)c2n1` (atropisomer, axis not shown) [Example 26]: the pIC50 was 7.82.

For `CO[C@@H](C)COc1nc(NC2CN(C(=O)N3CC(CN(C)C)C3)C2)c2cc(C3CC3)c(-c3c(C)c(F)cc4[nH]ncc34)c(OCc3ccc(-c4cn([C@H](C(=O)N5C[C@H](O)C[C@H]5C(=O)N[C@@H](CO)c5ccc(-c6scnc6C)cc5)C(C)C)nn4)cc3)c2n1` (atropisomer, axis not shown) [Example 25], the pIC50 was 7.89.

As usually defined, the pIC50 is the IC50 on a negative log10 scale, so that one unit is a factor of ten.
